Assay results published in patent publication US9642834B2, “Composition comprising alpha-lipoic acid and honokiol for treating neuropathies” (Giellepi S.p.A., priority 2012, dated 2017).
Entries after “also recorded” stand apart in the source; their conditions may differ.

Key:
[1] = tested on: primary cell culture of rat cortical neurons; assay: Morphological evaluation of neurite length (MAP2 staining) in primary cultures; assay type: cell-based; conditions: for Increase respect to control (culture A): neurite length relative to control culture A; for Increase respect to control (culture A) / Increase of average neurite length: overall concentration 10 μM (culture B: 40 ng mL−1 bFGF), 6 days incubation; for Increase of average neurite length: control culture A 280; for Effect on neurite extension/length (in words): overall concentration 10 μM, compared to control culture A
Procedure: Eight primary cellular cultures were prepared as described in Abe K et al. “Effects of recombinant human basic fibroblast growth factor and its modified protein CS23 on survival of primary cultured neurons from various regions of fetal rat brain.”, Jpn J Pharmacol 1990, 53 (2): 221-7. All operations were carried out under sterile conditions.
Neuronal cells were separated from cerebral hemispheres of rat fetuses of 18 days (Japan SLC, Inc.) and suspended in 10% FBS/MEM, then seeded at 9000 cells cm^−2 in poly-L-lysine plates.
After 24 hours, the culture medium was replaced with a serum-free medium, specific for the growth of neurons (Neurobasal Medium) supplemented with B27.
After 6 days incubation, the cells of the eight cultures were fixed with 4% formaldehyde.
The eight cultures were then evaluated regarding the length of neurites at the microscopic level. The neurons were subjected to immunohistochemical staining for the microtubule-associated protein-2 (MAP2) according to the histochemical method for the length of neurites, as described in Fukuyama Y et al. “Neurotrophic activity of honokiol on the cultures of fetal rat cortical neurons” Bioorg. Med Chem. Lett 12, 1163-66 (2002). The length of the most extended neurite of the whole cellular body was measured and calculated by using software programs Lumina Vision and Mac-SCOPE, according to the above-mentioned method described in Y. Fukuyama et al. (2002). The morphometric analyses were performed by measuring the length of the longest neurite from each neuron using Lumina Vision and Mac-Scope software (Yoshiyasu Fukuyama et al. 2002).

[2] = tested on: cultured rat cortical neurons; conditions: primary cultures; cited from earlier work
[3] = tested on: symptoms of diabetic polyneuropathy and sciatic pain; conditions: cited from earlier work

Molecule	Increase respect to control (culture A) [1]	Increase of average neurite length [1]	Effect on neurite extension/length (in words) [1]	Neurite growth and neuron survival (in words) [2]	Side effects such as nausea, vomiting and dizziness ([3]; daily doses 600, 1200 and 1800 mg)	Daily dose providing the best risk/benefit ratio ([3]; treatment of symptoms of diabetic polyneuropathy and sciatic pain) [mg]
C=CCc1ccc(O)c(-c2ccc(O)c(CC=C)c2)c1 [Culture H, honokiol]	1.02	287 (p = ns) μm	stimulated neurite growth in a negligible way	able to promote neurite growth; also recorded: capable of increasing the survival and development of neurons	–	–
O=C(O)CCCCC1CCSS1 (stereo not drawn) [Culture G, alpha-lipoic acid]	1.01	285 (p = ns) μm	stimulated neurite growth in a negligible way	–	dose-dependent increase of the side effects	600
Culture B: Human recombinant fibroblast growth factors (bFGF), 40 ng mL−1, supplied by Upstate Biotechnology	1.05	295 (p = ns) μm	–	–	–	–
